The source of these data is patent US10662223B2, “Composition for organ, tissue, or cell transplantation, kit, and transplantation method” (GemVax & KAEL Co., Ltd., priority 2014, dated 2020).

Entries after “also recorded” stand apart in the source; their conditions may differ.

The subject of test [1] is transplanted lung. Description: Rat lung transplantation: wet/dry weight ratio (reperfusion edema). In kind it is in vivo, Sprague-Dawley rat. The note with it: PERFADEX 50 mL + PEP1 5 mg; lower lobe of transplanted lung. Here is the method:
(§1) The experiment was performed using two rats with the same gene, and lung transplantation was carried out by detaching the left lung from a donor rat and placing the donor's lung in the left thoracic cavity from which an original left lung was removed of the recipient rat. To basically prevent rejection, the rats had the same gene. Both the donor rat and recipient rat had weights of 300 to 350 g, and were the Sprague-Dawley species. Following the extraction of a lung from the donor rat, the lung was transplanted to the recipient rat through surgical procedures.
(§2) During perfusion, mechanical ventilation was continuously performed to allow uniform lung perfusion.
(§3) (4) Following the perfusion, trachea was ligated while the lung expanded under the endotracheal intubation, a heart-lung block was extracted, and then peripheral structures such as esophagus were removed on a cold petri-dish. The heart-lung block was weighed, and subjected to cold storage in a perfusion solution, which was the same as the lung perfusion solution. Ischemic duration was set three hours.
(§4) For the experiment, the lung transplant rats were divided into four groups. […]

In another test the test system is TNF-α. Description: Renal IR injury mouse model: TNF-α level in renal tissue. In kind it is in vivo, C57BL/6 mouse. The following applies: 24 hours after IR; 1000 nmol/kg 30 minutes before and 12 hours after IR; compared with PBS control group. Here is the method: (§5) A renal JR injury mouse model was obtained by inducing IR by bilateral clamping renal pedicles for 30 minutes and restoring blood flow after 30 minutes by removing the clamps. Experimental groups were divided into three groups, which are an administered group (PEP 1), a control group (PBS: without PEP 1 administration), and a Sham group (no bilateral clamping). PEP 1 was subcutaneously injected at a concentration of 1000 nmol/kg 30 minutes before and 12 hours after the IR induction.
(§6) A C57BL/6 mouse (8-week-old; Charles River Laboratories, Wilmington, Mass.) was used to induce renal IR injury. The renal pedicles were clamped with vascular forceps to block blood flow, and ischemia was induced for […] in the renal IR injury model, followed by reperfusion.
(§7) The peptide PEP 1 was diluted with PBS to a concentration of 1000 nmol/kg, and then intraperitoneally injected twice, 30 minutes before and 12 hours after the IR.
(§8) Protein was extracted from renal tissue 24 hours after the IR, and IL-6, MCP-1 and TNF-α levels were measured by a cytometric bead array. Mouse IL-6, MCP-1, TNF-α, and an ELISA kit were purchased from R&D Systems, and the experiment was conducted according to the manufacturer's protocol.

Test [2] relates to renal IR injury mouse model. Description: Renal IR injury mouse model: blood urea nitrogen (BUN) and creatine. In kind it is in vivo, C57BL/6 mouse. The note with it: 24 hours after IR; 1000 nmol/kg 30 minutes before and 12 hours after IR; compared with PBS control group. As for the experimental part: as §5, §6, §7
Blood was taken 24 hours after the JR and the levels of blood urea nitrogen (BUN) and creatine as renal toxicity markers were measured, renal tissue was taken and prepared into paraffin blocks for immunohistochemical and histological studies, and then proteins were extracted to measure cytokine levels. The creatine concentration and BUN were measured using an autoanalyzer (Technicon RA-1000; Bayer, Tarrytown, N.Y.).

In test [3] the test system is transplanted lung. Description: Rat lung transplantation: H&E staining of alveolar tissue. In kind it is in vivo, Sprague-Dawley rat. Here is the method:
as §1, §2, §3, §4

The subject of the next test is renal tissue. Description: Renal IR injury mouse model: TUNEL staining, renal apoptosis. The note with it: 24 hours after IR; 1000 nmol/kg 30 minutes before and 12 hours after IR; compared with PBS control group. In kind it is in vivo, C57BL/6 mouse. Here is the method: (§9) A renal JR injury mouse model was obtained by inducing IR by bilateral clamping renal pedicles for 30 minutes and restoring blood flow after 30 minutes by removing the clamps. Experimental groups were divided into three groups, which are an administered group (PEP 1), a control group (PBS: without PEP 1 administration), and a Sham group (no bilateral clamping). PEP 1 was subcutaneously injected at a concentration of 1000 nmol/kg 30 minutes before and 12 hours after the IR induction. A C57BL/6 mouse (8-week-old; Charles River Laboratories, Wilmington, Mass.) was used to induce renal IR injury. The renal pedicles were clamped with vascular forceps to block blood flow, and ischemia was induced for […] in the renal IR injury model, followed by reperfusion. The peptide PEP 1 was diluted with PBS to a concentration of 1000 nmol/kg, and then intraperitoneally injected twice, 30 minutes before and 12 hours after the IR. […] Renal apoptosis was evaluated by staining renal tissue with TUNEL stain 24 hours after the IR. Renal paraffin sections were stained with TUNEL using a TUNEL staining kit (Roche Applied Science, Indianapolis, Ind., USA).

The subject of the next test is abdominal skin flap. Description: Flap IR injury rat model: flap survivability. In kind it is in vivo, Sprague-Dawley Rat. The following applies: 7 days after IR induction; 10 mg/500 μl intramuscularly 30 minutes before and 1, 2, 3, 4, 5, and 7 days after IR; 7 hours ischemia. Here is the method: Transplantation of a flap of the rectus abdominis was carried out as follows. An IR injury rat model was obtained by detaching a flap with a size of 5 cm×5 cm from abdominal skin of a white rat (Sprague-Dawley Rat, 180 to 230 g), adding PEP1 or saline to the rat, inducing ischemia through clamping, and restoring blood flow after 7 hours by removing the clamps (refer to FIG. 11).
Experimental groups were divided into three groups, which are an administered group (PEP 1), a control group (PBS without PEP 1), and a sham group (group in which no IR injury induced). PEP 1 (10 mg/500 μl) or saline (500 Id) was intramuscularly injected 30 minutes before and 1, 2, 3, 4, 5, and 7 days after the IR induction.
Flap survivability was measured 7 days after the IR induction. The flap survivability was measured through digital image analysis using imageJ program.

In a further test the test system is MCP-1. Description: Renal IR injury mouse model: MCP-1 level in renal tissue. The note with it: 24 hours after IR; 1000 nmol/kg 30 minutes before and 12 hours after IR; compared with PBS control group. In kind it is in vivo, C57BL/6 mouse. Here is the method:
as §5, §6, §7, §8

Test [4] relates to transplanted lung. Description: Rat lung transplantation: analysis of bronchoalveolar lavage fluid (BAL). In kind it is in vivo, Sprague-Dawley rat. The note with it: PERFADEX 50 mL + PEP1 5 mg. As for the experimental part:
as §1, §2, §3, §4

For another test, the system named is IL-6. Description: Renal IR injury mouse model: IL-6 level in renal tissue. In kind it is in vivo, C57BL/6 mouse. The note with it: 24 hours after IR; 1000 nmol/kg 30 minutes before and 12 hours after IR; compared with PBS control group. As for the experimental part: as §5, §6, §7, §8
Test [5] has as its system macrophages and neutrophils in renal tissue. Description: Renal IR injury mouse model: innate immune cell infiltration by immunohistochemistry (F4/80, Gr-1). In kind it is in vivo, C57BL/6 mouse. The note with it: 24 hours after IR; 1000 nmol/kg 30 minutes before and 12 hours after IR; compared with PBS control group. As for the experimental part: as §9, with “Infiltration of innate immune cells” for “Renal apoptosis”, “staining the” for “staining”, “a macrophage maker (F4/80) and a neutrophil maker (Gr-1) through immunohistochemistry” for “TUNEL stain”, “Specifically, infiltrated macrophages and neutrophils” for “Renal paraffin sections”, “with” for “with TUNEL using”, “macrophage-specific antibody (F4/80, abcam., Cambridge, Mass.) by an immunochemical method performed on paraffin-containing sections.” for “TUNEL staining kit (Roche Applied Science, Indianapolis, Ind., USA).”

[6] abbreviates: PERFADEX 50 mL + PEP1 5 mg as lung preservation solution.

“EARPALLTSRLRFIPK (listed as Homo sapiens) [PEP 1, 16 aa peptide derived from Homo sapiens telomerase, position [611-626]]”: in the test on transplanted lung [1], the “reperfusion edema (wet/dry weight ratio) compared with normal saline administered group” value is reported as “significantly (p<0.05) decreased” and the “reperfusion edema level among the four groups” value was “lowest level”. The “TNF-α level in renal tissue” value in the test with TNF-α is “no significant difference”. Moreover, in [2], the “blood urea nitrogen (BUN) level” value is reported as “significantly decreased” and the creatine level entry is “significantly decreased”. Further, the “preventing hemorrhage and maintaining the alveolar wall, 5 mg PEP1 rather than 50 mg PEP1” value in the test with transplanted lung [3] (PEP1 added to PERFADEX 50 mL, 5 mg compared with 50 mg) is “more effective”. For the same sequence, in the test with transplanted lung [3] (setting [6]), the “alveolar wall of transplanted lung (H&E)” value was “did not get harder” and the “hemorrhage in transplanted lung (H&E)” value is “rarely occurred”. For the same sequence, in the test with renal tissue, the “TUNEL-positive cells (renal apoptosis)” value is “remarkably decreased”. Besides, the flap survivability with abdominal skin flap is recorded as 58.88%±11.44%. In addition, in the test with MCP-1, the “MCP-1 level in renal tissue” value is reported as “significantly decreased; also recorded: significantly inhibited”. The “expression of inflammatory cells in BAL among the four groups” value in the test on transplanted lung [4] is “lowest expression”. For the same sequence, the “IL-6 level in renal tissue” value in the test with IL-6 is given as “significantly decreased; also recorded: significantly inhibited”. In test [5], the “infiltration of macrophages into renal tissue (F4/80)” value is “remarkably decreased; also recorded: inhibited” and the “infiltration of neutrophils into renal tissue (Gr-1)” value is listed as “remarkably decreased; also recorded: inhibited”.
